Source: the supplement of paper PMC10307832

How the values were obtained:
Assay in all cases: relative viability (nuclei count vs DMSO), 5 days (fraction); higher = more cells survive
[1] = compound: CC(C)=CC[C@@H](O)C1=CC(=O)c2c(O)ccc(O)c2C1=O [Shikonin] + Cc1cc(Nc2cc(N3CCN(C)CC3)nc(Sc3ccc(NC(=O)C4CC4)cc3)n2)n[nH]1 [Tozasertib] (partner 0.1 µM)
Outline: (§1)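 Medians of duplicate plates are given as relative viability. That measure is the nuclei count in treated wells divided by the count in vehicle wells. Counts were taken on 4× images of lung cancer cell lines in 1536-well plates, 5 days after pin-tool dosing the day after seeding with one drug alone or a fixed anchor-drug dose plus five library-drug doses (not always all listed) in √10 steps.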

[2] = compound: CC(C)N(CCCNC(=O)Nc1ccc(C(C)(C)C)cc1)C[C@H]1O[C@@H](n2ccc3c(N)ncnc32)[C@H](O)[C@@H]1O + CS(=O)(=O)CCNCc1ccc(-c2ccc3ncnc(Nc4ccc(OCc5cccc(F)c5)c(Cl)c4)c3c2)o1 [Lapatinib] (partner 2 µM)
Outline: as §1

[3] = compound: CC(C)N(CCCNC(=O)Nc1ccc(C(C)(C)C)cc1)C[C@H]1O[C@@H](n2ccc3c(N)ncnc32)[C@H](O)[C@@H]1O + CC(=O)c1c(C)c2cnc(Nc3ccc(N4CCNCC4)cn3)nc2n(C2CCCC2)c1=O [Palbociclib] (partner 0.5 µM)
Outline: as §1

[4] = compound: CC(C)N(CCCNC(=O)Nc1ccc(C(C)(C)C)cc1)C[C@H]1O[C@@H](n2ccc3c(N)ncnc32)[C@H](O)[C@@H]1O + O=C(c1cc(Cc2n[nH]c(=O)c3ccccc23)ccc1F)N1CCN(C(=O)C2CC2)CC1 [Olaparib] (partner 8 µM)
Outline: as §1

UMC-11
relative viability ([1]; first compound 0.01 µM): 0.185
relative viability ([1]; first compound 0.1 µM): 0.213
relative viability ([1]; first compound 0.3162 µM): 0.203
relative viability ([1]; first compound 1 µM): 0.169
relative viability ([2]; first compound 0.08 µM): 0.864
relative viability ([2]; first compound 0.253 µM): 0.772
relative viability ([2]; first compound 0.8 µM): 0.846
relative viability ([2]; first compound 2.53 µM): 1.02
relative viability ([2]; first compound 8 µM): 1.05
relative viability ([3]; first compound 0.08 µM): 0.294
relative viability ([3]; first compound 0.253 µM): 0.316
relative viability ([3]; first compound 0.8 µM): 0.304
relative viability ([3]; first compound 2.53 µM): 0.323
relative viability ([3]; first compound 8 µM): 0.28
relative viability ([4]; first compound 0.08 µM): 0.407
relative viability ([4]; first compound 0.253 µM): 0.447
relative viability ([4]; first compound 0.8 µM): 0.378
relative viability ([4]; first compound 2.53 µM): 0.327
relative viability ([4]; first compound 8 µM): 0.323
